Reference: ChEMBL document CHEMBL4342527, “Discovery of Novel Fungal Lanosterol 14α-Demethylase (CYP51)/Histone Deacetylase Dual Inhibitors to Treat Azole-Resistant Candidiasis” (J Med Chem, 2020)
Active and inactive are the calls of the source. No cut-off for these calls is given here.

How the values were obtained:
[1] = target: Histone deacetylase; experiment: Inhibition of HDAC in HUVEC using Boc-Lys(Ac)-AMC as substrate preincubated for 12 hrs followed by substrate addition and measured after 4 hrs by fluorimetry; type: ADME, cell-based, Homo sapiens
[2] = tested on: Candida albicans; experiment: Inhibition of yeast to hypha transition in azole resistant Candida albicans 0304103 assessed as down regulation of CPH1 gene expression at 32 ug /ml after 16 hrs by SYBR Green I dye based RT-PCR analysis; type: functional, organism-based
[3] = tested on: Candida albicans; experiment: Inhibition of yeast to hypha transition in azole resistant Candida albicans 0304103 assessed as down regulation of EFG1 gene expression at 32 ug /ml after 16 hrs by SYBR Green I dye based RT-PCR analysis; type: functional, organism-based
[4] = target: T1, Lanosterol 14-alpha demethylase (Candida albicans (strain SC5314 / ATCC MYA-2876) (Yeast), UniProt P10613); experiment: Inhibition of CYP51 in azole-resistant Candida albicans 0304103 assessed as ergosterol content at 0.5 ug/ml after 24 hrs by GC-MS analysis (reference value: 75.21%); parameters: scale not given: the % may be the effect or the level left
T1 sequence (P10613 whole entry): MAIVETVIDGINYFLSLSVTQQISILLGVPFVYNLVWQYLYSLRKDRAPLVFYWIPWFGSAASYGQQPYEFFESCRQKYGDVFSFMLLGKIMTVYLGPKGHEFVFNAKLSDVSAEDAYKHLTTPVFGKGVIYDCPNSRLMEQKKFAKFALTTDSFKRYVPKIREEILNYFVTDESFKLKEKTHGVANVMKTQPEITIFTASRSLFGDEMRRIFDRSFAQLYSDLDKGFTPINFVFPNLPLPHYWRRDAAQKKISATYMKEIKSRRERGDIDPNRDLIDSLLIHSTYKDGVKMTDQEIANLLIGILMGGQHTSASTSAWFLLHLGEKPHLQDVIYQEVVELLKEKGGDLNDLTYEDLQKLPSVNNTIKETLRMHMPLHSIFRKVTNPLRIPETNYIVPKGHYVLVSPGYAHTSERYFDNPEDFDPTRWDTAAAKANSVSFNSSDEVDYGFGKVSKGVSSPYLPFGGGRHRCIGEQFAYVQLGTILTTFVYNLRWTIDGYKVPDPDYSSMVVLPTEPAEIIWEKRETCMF

[5] = tested on: A549; experiment: Cytotoxicity against human A549 cells assessed as reduction in cell viability after 48 hrs by CCK-8 assay based spectrophotometric analysis; conditions: A549, 48 h
[6] = Selectivity index, ratio of IC50 for HUVEC to MIC80 for azole-resistant Candida tropicalis 5008; type: toxicity; conditions: human
[7] = target: T2, Protein deacetylase HDAC6 (Homo sapiens, UniProt Q9UBN7); experiment: Inhibition of HDAC6 (unknown origin) after 30 mins by fluorescence based assay
T2 sequence (Q9UBN7 whole entry): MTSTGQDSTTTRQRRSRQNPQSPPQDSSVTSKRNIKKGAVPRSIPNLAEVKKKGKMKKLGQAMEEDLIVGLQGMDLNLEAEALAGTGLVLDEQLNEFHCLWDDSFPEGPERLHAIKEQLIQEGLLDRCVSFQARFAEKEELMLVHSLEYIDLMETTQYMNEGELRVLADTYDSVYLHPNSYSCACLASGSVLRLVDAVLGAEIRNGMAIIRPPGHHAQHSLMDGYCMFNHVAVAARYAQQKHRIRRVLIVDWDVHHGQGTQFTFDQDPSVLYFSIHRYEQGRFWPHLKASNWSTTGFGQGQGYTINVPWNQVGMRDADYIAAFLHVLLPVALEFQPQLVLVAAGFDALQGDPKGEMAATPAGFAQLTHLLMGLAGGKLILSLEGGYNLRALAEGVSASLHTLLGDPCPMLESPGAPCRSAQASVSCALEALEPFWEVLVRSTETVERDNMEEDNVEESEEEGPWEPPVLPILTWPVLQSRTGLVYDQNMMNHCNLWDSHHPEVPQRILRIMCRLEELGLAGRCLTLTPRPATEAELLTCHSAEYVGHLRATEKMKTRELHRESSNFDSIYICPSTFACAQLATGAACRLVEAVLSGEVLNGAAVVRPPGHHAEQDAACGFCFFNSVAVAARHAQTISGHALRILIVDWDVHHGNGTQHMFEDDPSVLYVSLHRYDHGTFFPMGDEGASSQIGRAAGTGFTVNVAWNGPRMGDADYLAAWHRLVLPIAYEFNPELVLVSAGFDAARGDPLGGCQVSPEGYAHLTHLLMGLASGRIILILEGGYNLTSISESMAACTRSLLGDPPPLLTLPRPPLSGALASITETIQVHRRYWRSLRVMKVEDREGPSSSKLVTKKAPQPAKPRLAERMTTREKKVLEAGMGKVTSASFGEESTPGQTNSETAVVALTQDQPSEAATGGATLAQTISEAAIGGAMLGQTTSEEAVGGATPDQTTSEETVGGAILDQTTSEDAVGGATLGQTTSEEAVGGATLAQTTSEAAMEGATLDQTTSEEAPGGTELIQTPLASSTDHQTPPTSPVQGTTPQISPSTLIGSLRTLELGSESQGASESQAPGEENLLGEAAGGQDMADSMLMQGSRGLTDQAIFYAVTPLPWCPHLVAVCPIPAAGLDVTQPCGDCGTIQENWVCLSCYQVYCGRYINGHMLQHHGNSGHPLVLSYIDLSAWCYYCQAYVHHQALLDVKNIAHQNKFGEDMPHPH

[8] = Selectivity index, ratio of IC50 for human A549 cells to MIC80 for azole-resistant Candida albicans 0304103; type: toxicity
[9] = tested on: Candida albicans; experiment: Inhibition of biofilm formation in azole resistant Candida albicans 0304103 assessed as down regulation of ALS3 gene expression at 32 ug /ml after 16 hrs by SYBR Green I dye based RT-PCR analysis; type: functional, organism-based
[10] = tested on: Candida albicans; experiment: Inhibition of yeast to hypha transition in azole resistant Candida albicans 0304103 assessed as down regulation of TEC1 gene expression at 32 ug /ml after 16 hrs by SYBR Green I dye based RT-PCR analysis; type: functional, organism-based
[11] = target: T1, Lanosterol 14-alpha demethylase; experiment: Inhibition of CYP51 in azole-resistant Candida albicans 0304103 assessed as eburicol level at 0.5 ug/ml after 24 hrs by GC-MS analysis relative to control; parameters: scale not given: the % may be the effect or the level left
[12] = Selectivity index, ratio of IC50 for HUVEC to MIC80 for azole-resistant Candida albicans 7781; type: toxicity; conditions: human
[13] = tested on: Candida albicans; experiment: Antifungal activity against azole-resistant Candida albicans 0304103 infected in ICR mouse assessed as reduction in fungal burden in kidney at 20 mg/kg, po qd for 5 days measured 24 hrs post-last dose; type: functional, organism-based
[14] = tested on: Candida albicans; experiment: Inhibition of HDAC in azole-resistant Candida albicans 0304103 assessed as reduction in CDR2 gene expression at 32 ug/ml after 16 hrs by SYBR Green-1 dye based RT-PCR analysis; conditions: 304103
[15] = tested on: Candida albicans; experiment: Antifungal activity against azole-resistant Candida albicans 0304103 infected in ICR mouse assessed as mean survival time at 20 mg/kg, ip qd for 5 days (reference value: 10 days); type: functional
[16] = tested on: Candida albicans; experiment: Antifungal activity against azole-resistant Candida albicans 0304103 infected in ICR mouse assessed as inhibition of filamentation at 20 mg/kg, ip qd for 5 days and measured on day 6 by periodic acid schiff staining-based histological analysis; type: functional, organism-based
[17] = tested on: Candida albicans; experiment: Antifungal activity against azole-resistant Candida albicans 0304103 infected in ICR mouse assessed as inhibition of fungal infection in kidney at 20 mg/kg, ip qd for 5 days and measured on day 6 by periodic acid schiff staining-based histological analysis; type: functional, organism-based
[18] = target: T1, Lanosterol 14-alpha demethylase; experiment: Inhibition of CYP51 in azole-resistant Candida albicans 0304103 assessed as lanosterol level at 0.5 ug/ml after 24 hrs by GC-MS analysis (reference value: 4.15%); parameters: scale not given: the % may be the effect or the level left
[19] = target: Histone deacetylase 1 (Homo sapiens, UniProt Q13547); experiment: Inhibition of HDAC1 (unknown origin) after 30 mins by fluorescence based assay
Histone deacetylase 1, sequence (Q13547 whole entry): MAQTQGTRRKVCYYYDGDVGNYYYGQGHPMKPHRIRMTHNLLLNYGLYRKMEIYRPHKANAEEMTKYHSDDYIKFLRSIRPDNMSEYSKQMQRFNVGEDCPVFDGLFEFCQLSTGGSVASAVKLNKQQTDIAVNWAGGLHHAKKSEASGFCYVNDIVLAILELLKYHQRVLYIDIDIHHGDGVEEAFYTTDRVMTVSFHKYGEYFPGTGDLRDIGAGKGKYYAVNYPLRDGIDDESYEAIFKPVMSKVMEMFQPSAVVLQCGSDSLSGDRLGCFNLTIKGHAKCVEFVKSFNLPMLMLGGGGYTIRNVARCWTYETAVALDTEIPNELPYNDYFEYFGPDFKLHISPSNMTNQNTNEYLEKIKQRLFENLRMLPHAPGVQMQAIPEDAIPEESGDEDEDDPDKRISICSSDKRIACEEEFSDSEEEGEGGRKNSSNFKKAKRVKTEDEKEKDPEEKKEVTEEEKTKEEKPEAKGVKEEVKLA

[20] = tested on: HUVEC; experiment: Cytotoxicity against HUVEC assessed as reduction in cell viability after 48 hrs by CCK-8 assay based spectrophotometric analysis; conditions: Homo sapiens
[21] = target: T1, Lanosterol 14-alpha demethylase; experiment: Inhibition of CYP51 in azole-resistant Candida albicans 0304103 assessed as reduction in ERG11 gene expression at 32 ug/ml after 16 hrs by SYBR Green-1 dye based RT-PCR analysis; parameters: species or system 304103

SMILES	IC50 [1] [µM]	inhibition [2]	inhibition [3]	Activity [4] [%]	IC50 [5] [µM]	selectivity ratio [6]	IC50 [7] [µM]	selectivity ratio [8]	inhibition [9]	inhibition [10]	Activity [11] [%]	selectivity ratio [12]	Activity [13]	inhibition [14]	MST [15] [days]	inhibition [16]	inhibition [17]	Activity [18] [%]	IC50 [19] [µM]	IC50 [20] [µM]	also measured
CN(Cc1ccc(-n2cnn(CCCCc3ccc(C(=O)NO)cc3)c2=O)cc1)CC(O)(Cn1cncn1)c1ccc(F)cc1F (racemic)	6.8	Active	Active	61.48	6.7 to 25.4	2 to 16	0.12	2 to 16	Active	Active	13.22	2 to 16	Active	Active	20	Active	Active	25.29	0.28	6.7 to 25.4	inhibition (INH) [21]: Active
CN(Cc1ccc(OCCCOc2ccc(CC(=O)NO)cc2)cc1)CC(O)(Cn1cncn1)c1ccc(F)cc1F (racemic)	2.7	Active	Active	18.44	6.7 to 25.4	2 to 16	0.6	2 to 16	Active	Active	65.4	2 to 16	Active	Active	16.5	Active	Active	8.57	0.69	6.7 to 25.4	inhibition (INH) [21]: Active
